Assay results published in the NIST ThermoML archive (doi:10.1016/j.jct.2008.06.016).
Numbers after ± are expanded uncertainties.

Assay: molar heat capacity at constant pressure
Details: 101.33 kPa, Crystal, Small sample (50 mg) DSC

NC(=O)c1ccccc1O [2-hydroxybenzamide]
Details | molar heat capacity at constant pressure [J/K/mol]
280.4 K | 124.1 ± 1.9
285.4 K | 126.3 ± 2
290.4 K | 128.7 ± 2
295.4 K | 130.9 ± 2
300.4 K | 133.1 ± 2.1
305.4 K | 135.6 ± 2.1
310.4 K | 138 ± 2.2
315.4 K | 140.5 ± 2.2
320.4 K | 142.9 ± 2.2
325.4 K | 145.5 ± 2.2
330.4 K | 148.1 ± 2.3
335.4 K | 150.5 ± 2.3
340.4 K | 153.1 ± 2.4
345.4 K | 155.6 ± 2.4
350.4 K | 158.2 ± 2.4
355.4 K | 160.6 ± 2.5
360.4 K | 163.3 ± 2.5
365.4 K | 165.6 ± 2.6
370.4 K | 168.1 ± 2.6
375.4 K | 170.3 ± 2.7
380.4 K | 172.9 ± 2.7
385.4 K | 175.4 ± 2.7
390.4 K | 177.9 ± 2.7
395.4 K | 180.6 ± 2.8

O=C(O)c1ccccc1O [2-hydroxybenzoic acid]
Details | molar heat capacity at constant pressure [J/K/mol]
280.4 K | 128.5 ± 2
285.5 K | 130 ± 2
290.5 K | 131.6 ± 2.1
295.4 K | 133.5 ± 2.1
300.4 K | 135.4 ± 2.1
305.4 K | 137.4 ± 2.2
310.4 K | 139.4 ± 2.2
315.4 K | 141.4 ± 2.2
320.4 K | 143.5 ± 2.2
325.4 K | 145.5 ± 2.2
330.4 K | 147.6 ± 2.3
335.4 K | 149.8 ± 2.3
340.4 K | 151.8 ± 2.3
345.4 K | 154.1 ± 2.4
350.4 K | 156.2 ± 2.4
355.4 K | 158.2 ± 2.4
360.4 K | 160.3 ± 2.5
365.4 K | 162.3 ± 2.5
370.4 K | 164.2 ± 2.6
375.4 K | 165.9 ± 2.6
380.4 K | 168 ± 2.6
385.4 K | 170.1 ± 2.7
390.4 K | 172.1 ± 2.7
395.5 K | 173.8 ± 2.7
400.5 K | 175.6 ± 2.7
405.5 K | 177.5 ± 2.7

O=C(O)c1cccc(O)c1 [3-hydroxybenzoic acid]
Details | molar heat capacity at constant pressure [J/K/mol]
280.4 K | 134.6 ± 2.1
285.5 K | 136.8 ± 2.1
290.5 K | 138.9 ± 2.2
295.4 K | 141.2 ± 2.2
300.4 K | 143.5 ± 2.2
305.4 K | 145.8 ± 2.2
310.4 K | 147.9 ± 2.3
315.4 K | 150.2 ± 2.3
320.4 K | 152.7 ± 2.3
325.5 K | 155 ± 2.4
330.5 K | 157.4 ± 2.4
335.5 K | 159.7 ± 2.5
340.5 K | 162.2 ± 2.5
345.5 K | 164.5 ± 2.6
350.4 K | 166.9 ± 2.6
355.4 K | 169.1 ± 2.7
360.4 K | 171.3 ± 2.7
365.4 K | 173.7 ± 2.7
370.4 K | 175.9 ± 2.7
375.4 K | 177.9 ± 2.7
380.4 K | 180.8 ± 2.8
385.4 K | 183.8 ± 2.8
390.5 K | 186.3 ± 2.9
395.5 K | 188.7 ± 2.9
400.5 K | 190.6 ± 3
405.5 K | 192.6 ± 3
410.5 K | 194.6 ± 3
415.5 K | 196.6 ± 3.1
420.5 K | 198.3 ± 3.1
425.5 K | 200.3 ± 3.1
430.5 K | 202.5 ± 3.2
435.5 K | 205 ± 3.2
440.5 K | 207.5 ± 3.2
445.5 K | 209.9 ± 3.2
450.5 K | 212.1 ± 3.3
455.5 K | 214.8 ± 3.3
460.4 K | 218.8 ± 3.4

O=C(O)c1ccc(O)cc1 [4-hydroxybenzoic acid]
Details | molar heat capacity at constant pressure [J/K/mol]
280.8 K | 138.9 ± 2.2
285.8 K | 141.3 ± 2.2
290.8 K | 143.5 ± 2.2
295.8 K | 145.7 ± 2.2
300.7 K | 148 ± 2.3
305.8 K | 149.7 ± 2.3
310.8 K | 151.8 ± 2.3
315.8 K | 154.6 ± 2.4
320.8 K | 156.4 ± 2.4
325.8 K | 158.7 ± 2.5
330.8 K | 161.4 ± 2.5
335.8 K | 163.8 ± 2.6
340.8 K | 166.3 ± 2.6
345.8 K | 168.6 ± 2.6
350.8 K | 171.1 ± 2.7
355.8 K | 173.4 ± 2.7
360.8 K | 175.5 ± 2.7
365.7 K | 177.8 ± 2.7
370.7 K | 180 ± 2.8
375.7 K | 182 ± 2.8
380.8 K | 184.4 ± 2.8
385.8 K | 186.7 ± 2.9
390.8 K | 188.9 ± 2.9
395.8 K | 191 ± 3
400.8 K | 193.1 ± 3
405.8 K | 195.1 ± 3
410.8 K | 197 ± 3.1
415.8 K | 198.7 ± 3.1
420.8 K | 200.4 ± 3.1
425.8 K | 202.2 ± 3.2
430.8 K | 204.5 ± 3.2
435.8 K | 207.1 ± 3.2
440.8 K | 209.5 ± 3.2
445.8 K | 211.6 ± 3.2
450.8 K | 213.8 ± 3.3
455.8 K | 215.9 ± 3.3
460.7 K | 218.2 ± 3.4
